Tests used:
[1] = target: BCL-2 (binding to BAK peptide) (Homo sapiens, UniProt P10415); experiment: SPR (Biacore) solution inhibition assay, BCL-2 binding to immobilized BAK peptide; conditions: biotinylated BAK peptide surface, 56 nM BCL-2, 25° C.; range = high and low IC50 values from multiple experiments; read-out: BCL2_SPR IC50 BAK
Description: (§1) The present method includes utility of a Surface plasmon resonance (SPR)-based biosensor (Biacore™′ GE Healthcare, Uppsala, Sweden) to characterize BCL-2 inhibitors.
(§2) Biacore™ utilizes the phenomenon of surface plasmon resonance (SPR) to detect and measure binding interactions. In a typical Biacore experiment, one of the interacting molecules (ligand) is immobilized on a flexible dextran matrix while the interacting partner (analyte) is allowed to flow across that surface. A binding interaction results in an increase in mass on the sensor surface and a corresponding direct change in the refractive index of the medium in the vicinity of the sensor surface. Changes in refractive index or signal are recorded in resonance units (R.U.) Signal changes due to association and dissociation of complexes are monitored in a non-invasive manner, continuously and in real-time, the results of which are reported in the form of a sensorgram.
(§3) The SPR assay is configured to examine solution inhibition of BCL-2 binding to peptide derivatized sensor surfaces to generate IC50 values as a measure of inhibitor potency.
(§4) Biacore™ A100 (GE Healthcare, Uppsala, Sweden) was used to conduct all experiments reported herein. Sensor surface preparation and all interaction analyses experiments were performed at 25° C. Reagents were purchased from GE Healthcare. Running buffer containing 10 mM Hepes, pH7.4, 150 mM sodium chloride, 1.25 mM Dithiothreitol, 3% Dimethyl sulfoxide and 0.05% polysorbate 20 were utilized throughout all analyses.
(§5) Biotinylated BAK, BAD and NOXA peptides were diluted to 10 nM in running buffer and captured onto a sensor surface pre-derivatized with streptavidin (sensor chip SA) to peptide surface densities in the range 50-100 R.U. Peptide captured surfaces were blocked with 500 μM PEO2-Biotin.
(§6) Interaction analyses were performed by first equilibrating each sample within a 6 point three fold compound dilution series in the range 16 μM to […] with 56 nM BCL-2 for one hour during instrument start-up procedures. Protein compound mixtures were then injected over each peptide surface in parallel for 60 seconds at a flow-rate of 30 μL/min. 56 nM BCL-2 control samples were also prepared and run at regular intervals during the assay. Surface regeneration was performed at the end of each analysis cycle by two 30 second injections of 10 mM Glycine, pH 2.5, 1M Sodium Chloride, 0.05% polysorbate 20. Samples and control compound samples were run in duplicate and controls are also run at regular intervals during the assay to monitor surface and assay performance.
(§7) Data analyses are carried out using Biacore™ A100 evaluation software v1.1 to validate assay quality. Binding level report points were used relative to BCL-2 control samples to calculate % inhibition values for each compound protein mixture. […] The range of data shown in table 1 represents the high and low IC50 values obtained from multiple experiments.

[2] = target: BCL-2 (binding to BAD peptide) (Homo sapiens, UniProt P10415); experiment: SPR (Biacore) solution inhibition assay, BCL-2 binding to immobilized BAD peptide; conditions: biotinylated BAD peptide surface, 56 nM BCL-2, 25° C.; range = high and low IC50 values from multiple experiments; read-out: BCL2_SPR IC50 BAD
Description: as §1, §2, §3, §4, §5, §6, §7

BCL-2 (binding to BAD peptide), sequence (P10415 whole entry): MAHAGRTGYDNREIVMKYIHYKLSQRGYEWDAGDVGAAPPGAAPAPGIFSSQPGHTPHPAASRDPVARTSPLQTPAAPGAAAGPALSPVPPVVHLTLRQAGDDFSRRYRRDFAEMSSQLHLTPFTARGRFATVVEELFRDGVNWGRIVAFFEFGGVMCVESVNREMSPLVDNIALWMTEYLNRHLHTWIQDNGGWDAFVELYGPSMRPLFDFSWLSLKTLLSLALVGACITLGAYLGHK
BCL-2 (binding to BAK peptide), sequence (P10415 whole entry): as above

| SMILES | IC50 [1] [nM] | IC50 [2] [nM] |
| --- | --- | --- |
| CCCCN(CCCC)C(=O)c1cc(C)n(-c2ccc(NC(=O)CCSc3ccc4ccccc4c3)cc2C(=O)N2Cc3ccccc3C[C@H]2CO)n1 [Example 64] | 112 to 133 | 138 to 149 |
| CCCCN(CCCC)C(=O)c1cc(C)n(-c2ccc(NC(=O)c3cc(=O)c4cc(C)ccc4o3)cc2C(=O)N2Cc3ccccc3C[C@H]2CO)n1 [Example 59] | 395 to 410 | 531 to 537 |
| CCCCN(CCCC)C(=O)c1cc(C)n(-c2ccc(NC(=O)Cc3ccccc3)cc2C(=O)N2Cc3ccccc3C[C@H]2CO)n1 [Example 5] | 98 to 134 | 95.9 to 129 |
| CCCCN(CCCC)C(=O)c1cc(C)n(-c2ccc(NC(=O)Cc3ccc(F)cc3)cc2C(=O)N2Cc3ccccc3C[C@H]2CO)n1 [Example 98] | 244 to 267 | 302 to 306 |
| CCCCN(CCCC)C(=O)c1cc(C)n(-c2ccc(NC(=O)CC3NC(=O)NC3=O)cc2C(=O)N2Cc3ccccc3C[C@H]2CO)n1 (some centres unmarked) [Example 111] | 553 to 566 | 763 to 799 |
| CCCCN(CCCC)C(=O)c1cc(C)n(-c2ccc(NC(=O)COc3ccc([N+](=O)[O-])cc3)cc2C(=O)N2Cc3ccccc3C[C@H]2CO)n1 [Example 21] | 1950 to 2170 | 2390 to 2670 |
| CCCCN(CCCC)C(=O)c1cc(C)n(-c2ccc(NC(=O)c3ccc4c(c3)nnn4C(C)C)cc2C(=O)N2Cc3ccccc3C[C@H]2CO)n1 [Example 147] | 298 to 315 | 306 to 381 |
| CCCCN(CCCC)C(=O)c1cc(C)n(-c2ccc(NC(=O)c3nn(C)c4ncccc34)cc2C(=O)N2Cc3ccccc3C[C@H]2CO)n1 [Example 45] | 499 to 556 | 689 to 773 |
| CCCCN(CCCC)C(=O)c1cc(C)n(-c2ccc(NC(=O)C(C)CC(=O)O)cc2C(=O)N2Cc3ccccc3C[C@H]2CO)n1 (some centres unmarked) [Example 100] | 127 to 129 | 172 to 174 |
| CCCCN(CCCC)C(=O)c1cc(C)n(-c2ccc(NC(C)=O)cc2C(=O)N2Cc3ccccc3C[C@H]2CO)n1 [Example 13] | 462 to 478 | 776 to 791 |
| CCCCN(CCCC)C(=O)c1cc(C)n(-c2ccc(NC(=O)CCc3ccccc3)cc2C(=O)N2Cc3ccccc3C[C@H]2CO)n1 [Example 8] | 191 to 287 | 198 to 260 |
| CCCCN(CCCC)C(=O)c1cc(C)n(-c2ccc(NC(=O)c3ccc(COC)o3)cc2C(=O)N2Cc3ccccc3C[C@H]2CO)n1 [Example 142] | 935 to 1120 | 1130 to 1300 |
| CCCCN(CCCC)C(=O)c1cc(C)n(-c2ccc(NC(=O)c3ncccc3O)cc2C(=O)N2Cc3ccccc3C[C@H]2CO)n1 [Example 62] | 238 to 277 | 318 to 326 |
| CCCCN(CCCC)C(=O)c1cc(C)n(-c2ccc(NC(=O)CCCOCc3ccccc3)cc2C(=O)N2Cc3ccccc3C[C@H]2CO)n1 [Example 133] | 310 to 360 | 410 to 438 |
| CCCCN(CCCC)C(=O)c1cc(C)n(-c2ccc(NC(=O)C(C)CC(=O)O)cc2C(=O)N2Cc3ccccc3C[C@H]2CO)n1 (some centres unmarked) [Example 37] | 127 to 129 | 172 to 174 |
| CCCCN(CCCC)C(=O)c1cc(C)n(-c2ccc(NC(=O)CCc3cn4cccnc4n3)cc2C(=O)N2Cc3ccccc3C[C@H]2CO)n1 [Example 79] | 299 to 351 | 369 to 398 |
| CCCCN(CCCC)C(=O)c1cc(C)n(-c2ccc(NC(=O)c3cccn(Cc4ccccc4)c3=O)cc2C(=O)N2Cc3ccccc3C[C@H]2CO)n1 [Example 116] | 731 to 786 | 839 to 856 |
| CCCCN(CCCC)C(=O)c1cc(C)n(-c2ccc(NC(=O)Cc3ccc(OC)c(C)c3)cc2C(=O)N2Cc3ccccc3C[C@H]2CO)n1 [Example 95] | 107 to 108 | 148 to 155 |
| CCCCN(CCCC)C(=O)c1cc(C)n(-c2ccc(NC(=O)Cc3c(F)cccc3Cl)cc2C(=O)N2Cc3ccccc3C[C@H]2CO)n1 [Example 159] | 409 to 430 | 574 to 596 |
| CCCCN(CCCC)C(=O)c1cc(C)n(-c2ccc(NC(=O)[C@@H]3COc4ccccc4O3)cc2C(=O)N2Cc3ccccc3C[C@H]2CO)n1 [Example 65] | 137 to 140 | 172 to 173 |
| CCCCN(CCCC)C(=O)c1cc(C)n(-c2ccc(NC(=O)C(CC(=O)NC)c3ccccc3)cc2C(=O)N2Cc3ccccc3C[C@H]2CO)n1 (some centres unmarked) [Example 55] | 81 to 110 | 100 to 129 |
| CCCCC(CCCC)C(=O)c1cc(C)n(-c2ccc(NC(=O)COc3cccc4ccccc34)cc2C(=O)N2Cc3ccccc3C[C@H]2CO)n1 [Example 110] | 250 to 272 | 273 to 318 |
| CCCCN(CCCC)C(=O)c1cc(C)n(-c2ccc(NC(=O)CCc3c[nH]c4c(Cl)cccc34)cc2C(=O)N2Cc3ccccc3C[C@H]2CO)n1 [Example 124] | 215 to 235 | 254 to 260 |
| CCCCN(CCCC)C(=O)c1cc(C)n(-c2ccc(NC(=O)C3CC(=O)N(Cc4ccc(F)cc4)C3)cc2C(=O)N2Cc3ccccc3C[C@H]2CO)n1 (some centres unmarked) [Example 50] | 554 to 643 | 702 to 723 |
| CCCCN(CCCC)C(=O)c1cc(C)n(-c2ccc(NC(=O)COc3ccccc3Cl)cc2C(=O)N2Cc3ccccc3C[C@H]2CO)n1 [Example 23] | 3900 to 4170 | 4850 to 4930 |
| CCCCN(CCCC)C(=O)c1cc(C)n(-c2ccc(NC(=O)COc3ccc(OCc4ccccc4)cc3)cc2C(=O)N2Cc3ccccc3C[C@H]2CO)n1 [Example 20] | 1220 to 2070 | 1220 to 1810 |

More lines, now with the values ahead:

| IC50 [1] [nM] | IC50 [2] [nM] | SMILES |
| --- | --- | --- |
| 67.5 to 71.4 | 82.1 to 88.8 | CCCCN(CCCC)C(=O)c1cc(C)n(-c2ccc(NC(=O)C(CC(N)=O)c3ccccc3)cc2C(=O)N2Cc3ccccc3C[C@H]2CO)n1 (some centres unmarked) [Example 117] |
| 58.3 to 61.2 | 67.4 to 76.1 | CCCCN(CCCC)C(=O)c1cc(C)n(-c2ccc(NC(=O)Cc3c(C)[nH]c4c(F)cccc34)cc2C(=O)N2Cc3ccccc3C[C@H]2CO)n1 [Example 63] |
| 44.4 to 52.4 | 48.9 to 58 | CCCCN(CCCC)C(=O)c1cc(C)n(-c2ccc(NC(=O)Cc3cccc4ccccc34)cc2C(=O)N2Cc3ccccc3C[C@H]2CO)n1 [Example 3, (S)—N,N-dibutyl-1-(2-(3-(hydroxymethyl)-1,2,3,4-tetrahydroisoquinoline-2-carbonyl)-4-(2-(naphthalen-1-yl)acetamido)phenyl)-5-methyl-1H-pyrazole-3-carboxamide] |
| 63.1 to 66.9 | 77.3 to 79.6 | CCCCN(CCCC)C(=O)c1cc(C)n(-c2ccc(NC(=O)Cc3ccccc3F)cc2C(=O)N2Cc3ccccc3C[C@H]2CO)n1 [Example 57] |
| 64.7 to 75.3 | 80.3 to 93.4 | CCCCN(CCCC)C(=O)c1cc(C)n(-c2ccc(NC(=O)Cc3ccc(O)cc3)cc2C(=O)N2Cc3ccccc3C[C@H]2CO)n1 [Example 157] |
| 43.8 to 53 | 56.1 to 60.8 | CCCCN(CCCC)C(=O)c1cc(C)n(-c2ccc(NC(=O)Cc3cccc(Br)c3)cc2C(=O)N2Cc3ccccc3C[C@H]2CO)n1 [Example 138] |
| 95.7 to 103 | 119 to 126 | CCCCN(CCCC)C(=O)c1cc(C)n(-c2ccc(NC(=O)CC(CC(=O)O)c3ccccc3)cc2C(=O)N2Cc3ccccc3C[C@H]2CO)n1 (some centres unmarked) [Example 16] |
| 55.8 to 64.3 | 65.8 to 71 | CCCCN(CCCC)C(=O)c1cc(C)n(-c2ccc(NC(=O)Cc3ccc(OC)cc3)cc2C(=O)N2Cc3ccccc3C[C@H]2CO)n1 [Example 77] |
| 94 to 98.2 | 111 to 112 | CCCCN(CCCC)C(=O)c1cc(C)n(-c2ccc(NC(=O)CN3CC(c4ccccc4)CC3=O)cc2C(=O)N2Cc3ccccc3C[C@H]2CO)n1 (some centres unmarked) [Example 119] |
| 63.4 to 72.2 | 67.6 to 67.8 | CCCCN(CCCC)C(=O)c1cc(C)n(-c2ccc(NC(=O)C(Cc3ccccc3)C(=O)O)cc2C(=O)N2Cc3ccccc3C[C@H]2CO)n1 (some centres unmarked) [Example 34] |
| 67.3 to 73.9 | 91.3 to 101 | CCCCN(CCCC)C(=O)c1cc(C)n(-c2ccc(NC(=O)Cc3cccc(OC)c3)cc2C(=O)N2Cc3ccccc3C[C@H]2CO)n1 [Example 69] |
| 105 to 107 | 120 to 121 | CCCCN(CCCC)C(=O)c1cc(C)n(-c2ccc(NC(=O)C(CC(=O)OC)c3ccccc3)cc2C(=O)N2Cc3ccccc3C[C@H]2CO)n1 (some centres unmarked) [Example 6] |
| 75.5 to 79.1 | 84.2 to 88.5 | CCCCN(CCCC)C(=O)c1cc(C)n(-c2ccc(NC(=O)[C@@H](C)c3ccccc3)cc2C(=O)N2Cc3ccccc3C[C@H]2CO)n1 [Example 52] |
| 89.4 to 94.3 | 114 to 119 | CCCCN(CCCC)C(=O)c1cc(C)n(-c2ccc(NC(=O)C(CCO)c3ccccc3)cc2C(=O)N2Cc3ccccc3C[C@H]2CO)n1 (some centres unmarked) [Example 105] |
